The record followed here is patent US7652047B2, “Phenylamino isothiazole carboxamidines as MEK inhibitors” (Ardea Biosciences, Inc., priority 2005, dated 2010).

For test [1], the target named is T1, MEK1^CA (human GST-MEK1, constitutively active, Ser218Asp and Ser222Asp) (Homo sapiens, UniProt Q02750, S218D/S222D).
T1 construct: GST; made in house; host or cells: Escherichia coli
Put plainly: MEK1 enzymatic activity assay (MEK1^CA / ERK2 / MBP, [γ-33P]ATP incorporation). It counts as biochemical. As to conditions: Table 4, R' is (CH2)1 or 2-G; read-out: IC50. The essentials: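 Cascade assay: 25 µl reactions with 0.002 nmol E. coli-expressed GST-MEK1 S218D/S222D, 0.02 nmol His-tagged mouse ERK2, 0.25 nmol MBP, 0.25 nmol unlabeled ATP and 0.1 µCi [γ-33P]ATP. Compound preincubated 30 min at ambient temperature with MEK1/ERK2; stopped with TCA, 33P-labelled protein filter-captured and scintillation-counted.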

Test [2] deals with phosphorylated ERK in MDA-MB-231 breast cancer cells. Put plainly: Western blotting for phosphorylated ERK in EGF-stimulated MDA-MB-231 cells. Format: cell-based. The conditions noted are these: Homo sapiens, Table 4, compound 30 min, 100 ng/ml EGF 5 min. As to the method:
Effects of compounds in the cell were determined by Western blotting for phosphorylated ERK. MDA-MB-231 breast cancer cells were plated in a 48 well plate at 20,000 cells per well and grown in a 37° humidified CO2 incubator. The following day, the growth media (DMEM+10% fetal bovine serum) was removed and replaced with starve media (DMEM+0.1% fetal bovine serum). Cells were incubated in the starve media for sixteen hours and then treated with a range of compound concentrations for thirty minutes. After incubation with compound, cells were stimulated with 100 ng/ml EGF for five minutes. The cells were then lysed and analyzed by Western blot using a monoclonal antibody raised to phosphorylated ERK. The signal was amplified using a secondary antibody conjugated to a near-IR dye and detected on a Licor Odyssey scanner.
In general terms: In western blotting, separated proteins are transferred to a membrane and probed.

T1 sequence (Q02750 whole entry S218D/S222D): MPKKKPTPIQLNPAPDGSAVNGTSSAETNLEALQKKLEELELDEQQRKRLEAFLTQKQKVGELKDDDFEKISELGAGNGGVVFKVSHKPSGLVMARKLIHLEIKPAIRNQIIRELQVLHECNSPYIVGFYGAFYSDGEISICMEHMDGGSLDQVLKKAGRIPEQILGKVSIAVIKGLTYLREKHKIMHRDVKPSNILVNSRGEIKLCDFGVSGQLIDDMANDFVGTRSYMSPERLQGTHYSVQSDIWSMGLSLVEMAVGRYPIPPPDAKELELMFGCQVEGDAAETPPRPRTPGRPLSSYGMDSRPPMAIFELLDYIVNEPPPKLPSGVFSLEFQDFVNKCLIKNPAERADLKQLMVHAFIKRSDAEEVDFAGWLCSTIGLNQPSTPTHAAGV

As usually defined, the IC50 is the concentration that gives 50% inhibition. Broadly, the EC50 is the concentration at which the effect is half-maximal. Turning to `N=C(NCCc1ccccc1)c1c(O)nsc1Nc1ccc(Oc2ccccc2)cc1` [drawing 821], the IC50 in test [1] is 100 to 500 nM. Moreover, the EC50 in test [2] fell in the range of 100 to 500 nM. Consider `N=C(NCCc1cnc[nH]1)c1c(O)nsc1Nc1ccc(Oc2cc(Cl)ccc2Cl)cc1`, for which the IC50 in test [1] lay within 1 to 100 nM. The same compound displayed an EC50 in test [2] of 1 to 100 nM. Regarding `N=C(NCCN1CCOCC1)c1c(O)nsc1Nc1ccc(Oc2cc(Cl)ccc2Cl)cc1`, the concentration for a half-maximal effect (EC50) in test [2] was 1 to 100 nM. `N=C(NCCN1CCNCC1)c1c(O)nsc1Nc1ccc(Oc2cc(Cl)ccc2Cl)cc1` displayed an EC50 in test [2] of 1 to 100 nM.

Take `CC1CN(CCNC(=N)c2c(O)nsc2Nc2ccc(Oc3cc(Cl)ccc3Cl)cc2)CC(C)O1` (centres unmarked): in test [1], the IC50 is 100 to 500 nM. This compound gave an EC50 in test [2] of 100 to 500 nM. For `N=C(NCCN1CCCC1=O)c1c(O)nsc1Nc1ccc(Oc2cc(Cl)ccc2Cl)cc1`, in test [1], the IC50 is 1 to 100 nM. Besides, the EC50 in test [2] is 100 to 500 nM. In test [2], `N=C(NCCN1CCNC(=O)C1)c1c(O)nsc1Nc1ccc(Oc2cc(Cl)ccc2Cl)cc1` returned an EC50 of 1 to 100 nM.
